# In patent US20250179047A1, “5-[7-(3,4-DIHYDRO-1H-ISOQUINOLINE-2-CARBONYL)-1,2,3,4 TETRAHYDROISOQUINOLIN-6-YL]-1H-PYRROLE-3-CARBOXAMIDE DERIVATIVES, PHARMACEUTICAL COMPOSITIONS CONTAINING THEM AND THEIR USES AS PRO-APOPTOTIC AGENTS” (LES LABORATOIRES SERVIER, priority 2022, published 2025):
# Where two headings read alike, the source gives them in different places.
# Tests used:
# BCL2 WT = BCL2 WT (Homo sapiens (Human), UniProt P10415); assay: TR-FRET competitive binding assay, BCL2 WT
# Experimental: (§1) The relative binding potency of each compound was determined in a competitive binding assay using time resolved-fluorescence resonance energy transfer (TR-FRET). The method utilised a fluorescein labelled peptide derived from PUMA (5Flu-Ahx-[…]-NH2 wherein Ahx means 6-hexanoic acid monomer and the amino acid sequence is referred to as SEQ ID:01) which binds to a terbium labelled BCL2 or BCLXL protein. The degree of binding or corresponding compound inhibition can be quantified by the TR-FRET signal between the terbium donor and fluorescein acceptor.
# (§2) The human BCL2_wild-type (also named BCL2_wt), BCL2_G101V mutant and BCLXL_wild-type were E. coli expressed as a N-terminal Halo-fusion proteins and singly labelled with Terbium on the Halo protein to afford the following amino acid sequences:
# (§3) wherein the BCL2(1-207) sequence corresponds to UniProtKB® primary accession number P10415 and the BCLXL(2-196) sequence corresponds to UniProtKB® primary accession number Q07817-1.
# (§4) The assay was performed in a 40 μL volume in white 384-standard well plates (Corning #3574). An 11-point serial dilution of each compound was prepared in DMSO and transferred directly to plate followed by addition of fluorescein labelled peptide and lastly protein. Final assay conditions were 0.5 nM BCL2_wt, BCL2_G101V, BCL2_D103Y, BCL2_F104I, BCL2_D111A or BCLXL_wt, 2 or 20 nM fluorescein labelled peptide, 50 mM Hepes pH 7.5, 150 mM NaCl, 0.5 mM TCEP (Tris(2-carboxyethyl)phosphine), 0.05% Tween 20, 5% DMSO. The mixture was incubated for 2 hours at 23° C.
# (§5) TR-FRET measurements were performed on a Biotek Synergy Neo plate reader. TR-FRET was measured by excitation of the Terbium-donor at 340 nm and subsequent (delay time 100 μs) measurement of terbium and fluorescein emission at 495 nm and 520 nm, respectively, over a collection time of 300 μs. The TR-FRET signal was calculated as the emission-ratio at 520 nm over 495 nm.
# (§6) The TR-FRET ratio readout for test compounds was normalized against 0% inhibition controls wells and 100% inhibition control wells. Test compound potency (IC50) was estimated by nonlinear regression using the sigmoidal dose-response (variable slope) using Xlfit 4 (IDBS, Guildford, Surrey, UK, model 205). Were the IC50 could not be determined the % inhibition at the highest tested concentration is given.
# (§7) y=(A+((B−A)/(1+((C/x)^D))))
# (§8) where y is the normalized TR-TRET ratio measurement for a given concentration of test compound, x is the concentration of test compound, A is the estimated efficacy (% inhibition) at infinite compound dilution, and B is the maximal efficacy (% inhibition). C is the IC50 value and D is the Hill slope coefficient.
# (§9) The K1 values were determined from the IC50 values according to Cer et al, Nucleic Acids Res, 2009, July 1; 37 (WebServer issue): W441-W445.
# BCL2 G101V [1] = molecular target: BCL2 G101V (Homo sapiens, UniProt P10415, G101V); assay: TR-FRET competitive binding assay, BCL2 G101V; conditions: BCL2 G101V; Ki determined from IC50; read-out: TR_FRET EKI_Bcl2 G101V
# Experimental: as §1, §2, §3, §4, §5, §6, §7, §8, §9
# BCL2 G101V [2] = assay: TR-FRET competitive binding assay, BCL2 G101V; design: species or system human; conditions: for TR_FRET EKI G101V/WT selectivty ratio: ratio Ki BCL2 G101V / Ki BCL2 WT; for TR_FRET EKI G101V/WT selectivty: ratio of Ki BCL2 G101V to BCL2 WT
# Experimental: as §1, §2, §3, §4, §5, §6, §7, §8, §9
# BCL2 D103Y = BCL2 D103Y (Homo sapiens, UniProt P10415, D103Y); assay: TR-FRET competitive binding assay, BCL2 D103Y; conditions: Ki determined from IC50, read-out: TR_FRET EKI_Bcl2 D103Y
# Experimental: as §1, §2, §3, §4, §5, §6, §7, §8, §9
# BCLXL WT = BCLXL WT (Homo sapiens (Human), UniProt Q07817); assay: TR-FRET competitive binding assay, BCLXL WT; conditions: for Ki: BCLXL WT, Ki determined from IC50, read-out: TR_FRET EKI BclxL; for TR_FRET EKI BCLxL/WT selectivty ratio: ratio Ki BCLxL / Ki BCL2 WT; for TR_FRET EKI BCLxL/WT selectivty: ratio of Ki BCLxL to BCL2 WT
# Experimental: as §1, §2, §3, §4, §5, §6, §7, §8, §9
# KMS-12-PE Bcl-2 WT = assay: In vitro cytotoxicity CellTiter-Glo 48 h, KMS-12-PE Bcl-2 WT; type: cell-based; conditions: Homo sapiens, KMS-12-PE, C50 = concentration needed to reach 50% of the cellular viability
# Experimental: KMS-12-PE (ACC 606) were purchased from the Leibniz-Institute DSMZ (Braunschweig, Germany) and were grown at 37° C. in a humidified atmosphere with […] in media recommended by the suppliers. Lentiviral particles containing Bcl-2 wild type (also named “Bcl2 WT”) and Bcl-2 mutated on G101V (also named “Bcl2 G101V”) were cloned into pcLV-CMV-DEST-IRES-TagRFP. Lentiviral particles (1×106) were mixed with Polybrene at 8 µg/ml and transduced by spinoculation for 1 h at 32° C. and incubated overnight. After 8 days, TagRFP positive-cells were sorted by FACS. BCL2 expression was monitored by immunoblotting using anti-Flag and anti-BCL2 antibodies.
# Cellular viability was monitored with the cell viability assay (CellTiter-Glo®) on KMS-12-PE WT and G101V cell lines. The CellTiter-Glo® (CTG) Luminescent Cell Viability Assay (from Promega) is a homogeneous method to determine the number of viable cells in culture based on quantitation of the ATP present, which signals the presence of metabolically active cells.
# Dose response of compounds are performed with 10 mM stock solutions (DMSO), 11-points curve, in a 384-well compound plate. The assay plate is prepared by stamping 40 nL from compound dilution plate of all different concentrations (e.g. 10 mM to have final […] assay test) into a cell culture microplate, using Echo acoustic liquid handling (Labcyte, Beckman). 40 μl of cell solution is added and cells are incubated with compounds for 48 h at 37° C., 5% CO2. CTG was added to the cells (according to the manufacturer instructions) and luminescence intensity was recorded using the Pherastar plate reader (BMG).
# This assay provides in vitro cellular potency of the tested Bcl-2 inhibitors, measuring the C50, defined as the concentration needed to reach 50% of the cellular viability.
# [3] = Ki determined from IC50, read-out: TR_FRET EKI_Bcl2 WT
# [4] = Ki determined from IC50, read-out: TR_FRET EKI_Bcl2
# Chain of BCLXL WT (Q07817 other isoform, or with tags, fused parts or gaps): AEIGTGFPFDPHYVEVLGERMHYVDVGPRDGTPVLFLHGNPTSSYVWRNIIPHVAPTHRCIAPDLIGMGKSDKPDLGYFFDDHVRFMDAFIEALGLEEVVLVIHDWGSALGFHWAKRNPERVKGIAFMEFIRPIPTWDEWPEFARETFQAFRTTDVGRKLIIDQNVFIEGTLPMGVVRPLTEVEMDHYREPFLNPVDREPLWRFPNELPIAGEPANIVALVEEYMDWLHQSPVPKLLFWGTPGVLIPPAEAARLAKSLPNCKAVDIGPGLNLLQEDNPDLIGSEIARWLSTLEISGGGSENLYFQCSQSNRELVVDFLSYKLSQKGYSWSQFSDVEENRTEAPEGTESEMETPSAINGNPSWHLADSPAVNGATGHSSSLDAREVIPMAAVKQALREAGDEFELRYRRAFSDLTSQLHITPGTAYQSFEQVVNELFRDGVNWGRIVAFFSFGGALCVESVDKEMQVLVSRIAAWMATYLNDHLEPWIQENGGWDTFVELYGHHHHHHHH
Compound,Ki (BCL2 WT; [3]) [nM],Ki (BCL2 G101V [1]) [nM],TR_FRET EKI G101V/WT selectivty ratio (BCL2 G101V [2]),Ki (BCL2 D103Y) [nM],Ki (BCLXL WT) [nM],TR_FRET EKI BCLxL/WT selectivty ratio (BCLXL WT),IC50 (KMS-12-PE Bcl-2 WT) [µM],Ki (BCL2 WT; [4]) [nM],TR_FRET EKI G101V/WT selectivty (BCL2 G101V [2]),TR_FRET EKI BCLxL/WT selectivty (BCLXL WT)
"Cc1c(N(C(=O)c2cc(-c3cc4c(cc3C(=O)N3Cc5ccccc5C[C@H]3CN3CCCCC3)CN(C(=O)C(F)(F)c3ccc(OCCN5CCOCC5)cc3)CC4)n(C)c2C)c2ccc(O)cc2)cc(C#N)n1C [Example 178, N-(5-cyano-1,2-dimethyl-pyrrol-3-yl)-5-[2-[2,2-difluoro-2-[4-(2-morpholinoethoxy)phenyl]acetyl]-7-[(3S)-3-(1-piperidylmethyl)-3,4-dihydro-1H-isoquinoline-2-carbonyl]-3,4-dihydro-1H-isoquinolin-6-yl]-N-(4-hydroxyphenyl)-1,2-dimethyl-pyrrole-3-carboxamide]",0.09,1.3,15.3,0.16,11.9,137.8,0.0109,–,–,–
"Cc1c(C(=O)N(c2ccc(O)cc2)c2cc(C#N)n(C(F)F)c2C)cc(-c2cc3c(cc2C(=O)N2Cc4ccccc4C[C@H]2CN2CC4(CCC4)C2)CN(C(=O)Cc2ccc(OCCC4CCOCC4)cc2)CC3)n1C [Example 180, 5-[7-[(3S)-3-(2-azaspiro[3.3]heptan-2-ylmethyl)-3,4-dihydro-1H-isoquinoline-2-carbonyl]-2-[2-[4-(2-tetrahydropyran-4-ylethoxy)phenyl]acetyl]-3,4-dihydro-1H-isoquinolin-6-yl]-N-[5-cyano-1-(difluoromethyl)-2-methyl-pyrrol-3-yl]-N-(4-hydroxyphenyl)-1,2-dimethyl-pyrrole-3-carboxamide]",0.07,0.3,4.5,0.15,17.2,252.5,0.0078,–,–,–
"COc1ccc(N(C(=O)c2cc(-c3cc4c(cc3C(=O)N3Cc5ccccc5C[C@H]3CN3CC5(CCC5)C3)CN(C(=O)Cc3ccc(OCCN5CCOCC5)cc3F)CC4)n(C)c2C)c2ccc(O)cc2)cc1C#N [Example 181, 5-[7-[(3S)-3-(2-azaspiro[3.3]heptan-2-ylmethyl)-3,4-dihydro-1H-isoquinoline-2-carbonyl]-2-[2-[2-fluoro-4-(2-morpholinoethoxy)phenyl]acetyl]-3,4-dihydro-1H-isoquinolin-6-yl]-N-(3-cyano-4-methoxy-phenyl)-N-(4-hydroxyphenyl)-1,2-dimethyl-pyrrole-3-carboxamide]",0.04,0.4,9.9,0.09,9,248.7,0.0194,–,–,–
"COc1ccc(N(C(=O)c2cc(-c3cc4c(cc3C(=O)N3Cc5ccccc5C[C@H]3C)CN(C(=O)Cc3ccc(OCCN5CCOCC5)cc3)CC4)n(C)c2C)c2ccccc2)cc1C#N [Example 182, N-(3-cyano-4-methoxy-phenyl)-1,2-dimethyl-5-[7-[(3R)-3-methyl-3,4-dihydro-1H-isoquinoline-2-carbonyl]-2-[2-[4-(2-morpholinoethoxy)phenyl]acetyl]-3,4-dihydro-1H-isoquinolin-6-yl]-N-phenyl-pyrrole-3-carboxamide]",0.11,1.5,13.3,0.3,11.8,107.1,0.0097,–,–,–
"Cc1cc(OCCN2CCOCC2)c(F)cc1CC(=O)N1CCc2cc(-c3cc(C(=O)N(c4ccc(O)cc4)c4cc(C#N)n(C)c4C)c(C)n3C)c(C(=O)N3Cc4ccccc4C[C@H]3CN3CCCCC3)cc2C1 [Example 223, N-(5-cyano-1,2-dimethyl-pyrrol-3-yl)-5-[2-[2-[5-fluoro-2-methyl-4-(2-morpholinoethoxy)phenyl]acetyl]-7-[(3S)-3-(1-piperidylmethyl)-3,4-dihydro-1H-isoquinoline-2-carbonyl]-3,4-dihydro-1H-isoquinolin-6-yl]-N-(4-hydroxyphenyl)-1,2-dimethyl-pyrrole-3-carboxamide]",0.18,1.6,9.3,0.26,4.3,24.6,–,–,–,–
"Cc1cc(OCCN2CCOCC2)c(F)cc1CC(=O)N1CCc2cc(-c3cc(C(=O)N(c4ccc(O)cc4)c4cc(C#N)n(C)c4C)c(C)n3C)c(C(=O)N3Cc4ccccc4C[C@H]3C)cc2C1 [Example 224, N-(5-cyano-1,2-dimethyl-pyrrol-3-yl)-5-[2-[2-[5-fluoro-2-methyl-4-(2-morpholinoethoxy)phenyl]acetyl]-7-[(3R)-3-methyl-3,4-dihydro-1H-isoquinoline-2-carbonyl]-3,4-dihydro-1H-isoquinolin-6-yl]-N-(4-hydroxyphenyl)-1,2-dimethyl-pyrrole-3-carboxamide]",–,0.8,–,0.18,1.3,–,–,0.073,10.5,17.7
"Cc1cc(OCCN2CCOCC2)c(F)cc1CC(=O)N1CCc2cc(-c3cc(C(=O)N(c4ccccc4)c4cnn(C)c4)c(C)n3C)c(C(=O)N3Cc4ccccc4C[C@H]3C)cc2C1 [Example 225, 5-[2-[2-[5-fluoro-2-methyl-4-(2-morpholinoethoxy)phenyl]acetyl]-7-[(3R)-3-methyl-3,4-dihydro-1H-isoquinoline-2-carbonyl]-3,4-dihydro-1H-isoquinolin-6-yl]-1,2-dimethyl-N-(1-methylpyrazol-4-yl)-N-phenyl-pyrrole-3-carboxamide]",–,25.6,–,0.14,23.6,–,–,0.11,233.0,214.3
